According to PubChem BioAssay AID1963975 (Molecular Pharmacology Branch, DTP, NCI, 2024):
One block for each compound: values may come before it.

Tested on: 624824-186-R-J2-PDC multicell spheroids, viability
Assay: Anticancer human tumor 624824-186-R-J2-PDC patient-derived colon adenocarcinoma cell line growth inhibition [PI3K]
Conditions: for viability, T/C: stronger effect = lower value
Summary of the method: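 We assembled tumor spheroids that included a stromal compartment of HUVEC and MSCs, then exposed them to targeted agents alone and together with PI3K pathway inhibitors. Concentration series descended by half-log from clinically achievable Cmax levels. Viability served as the endpoint.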

[1] = curve of first compound, second compound 0.00316 µM
[2] = curve of first compound, second compound 0.01 µM
[3] = curve of first compound, second compound 0.0316 µM
[4] = curve of first compound, second compound 0.1 µM
[5] = curve of first compound, second compound 0.316 µM
[6] = curve of first compound, second compound 1 µM
[7] = second compound 0.00316 µM, first compound 0.0316 µM
[8] = second compound 0.00316 µM, first compound 0.1 µM
[9] = second compound 0.00316 µM, first compound 0.316 µM
[10] = second compound 0.00316 µM, first compound 1 µM
[11] = second compound 0.00316 µM, first compound 3.16 µM
[12] = second compound 0.00316 µM, first compound 10 µM
[13] = second compound 0.01 µM, first compound 0.0316 µM
[14] = second compound 0.01 µM, first compound 0.1 µM
[15] = second compound 0.01 µM, first compound 0.316 µM
[16] = second compound 0.01 µM, first compound 1 µM
[17] = second compound 0.01 µM, first compound 3.16 µM
[18] = second compound 0.01 µM, first compound 10 µM
[19] = second compound 0.0316 µM, first compound 0.0316 µM
[20] = second compound 0.0316 µM, first compound 0.1 µM
[21] = second compound 0.0316 µM, first compound 0.316 µM
[22] = second compound 0.0316 µM, first compound 1 µM
[23] = second compound 0.0316 µM, first compound 3.16 µM
[24] = second compound 0.0316 µM, first compound 10 µM
[25] = second compound 0.1 µM, first compound 0.0316 µM
[26] = second compound 0.1 µM, first compound 0.1 µM
[27] = second compound 0.1 µM, first compound 0.316 µM
[28] = second compound 0.1 µM, first compound 1 µM
[29] = second compound 0.1 µM, first compound 3.16 µM
[30] = second compound 0.1 µM, first compound 10 µM
[31] = second compound 0.316 µM, first compound 0.0316 µM
[32] = second compound 0.316 µM, first compound 0.1 µM
[33] = second compound 0.316 µM, first compound 0.316 µM
[34] = second compound 0.316 µM, first compound 1 µM
[35] = second compound 0.316 µM, first compound 3.16 µM
[36] = second compound 0.316 µM, first compound 10 µM
[37] = second compound 1 µM, first compound 0.0316 µM
[38] = second compound 1 µM, first compound 0.1 µM
[39] = second compound 1 µM, first compound 0.316 µM
[40] = second compound 1 µM, first compound 1 µM
[41] = second compound 1 µM, first compound 3.16 µM
[42] = second compound 1 µM, first compound 10 µM
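Also: spheroids exposed to agents for 7 days before viability read.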
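For viability, T/C in this document: 100% = DMSO vehicle treated spheroids.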

SMILES: C#Cc1c(F)ccc2cc(O)cc(-c3ncc4c(N5CC6CCC(C5)N6)nc(OCC56CCCN5CC(F)C6)nc4c3F)c12 (centres undefined) + CC(Nc1ccc2c(c1)OCCn1cc(N3C(=O)OCC3C(F)F)nc1-2)C(N)=O
IC50 [1]: > 10 µM
IC50 [2]: > 10 µM
IC50 [3]: > 10 µM
IC50 [4]: > 10 µM
IC50 [5]: > 10 µM
IC50 [6]: > 10 µM
viability, T/C [7]: 90%
viability, T/C [8]: 98.3%
viability, T/C [9]: 123%
viability, T/C [10]: 87.4%
viability, T/C [11]: 105%
viability, T/C [12]: 106%
viability, T/C [13]: 116%
viability, T/C [14]: 103%
viability, T/C [15]: 82.6%
viability, T/C [16]: 89%
viability, T/C [17]: 94.9%
viability, T/C [18]: 86.5%
viability, T/C [19]: 91.6%
viability, T/C [20]: 116%
viability, T/C [21]: 79.2%
viability, T/C [22]: 102%
viability, T/C [23]: 106%
viability, T/C [24]: 82.2%
viability, T/C [25]: 121%
viability, T/C [26]: 88.1%
viability, T/C [27]: 80.6%
viability, T/C [28]: 82.5%
viability, T/C [29]: 93.3%
viability, T/C [30]: 100%
viability, T/C [31]: 101%
viability, T/C [32]: 76.2%
viability, T/C [33]: 79%
viability, T/C [34]: 85.1%
viability, T/C [35]: 86.8%
viability, T/C [36]: 81.8%
viability, T/C [37]: 78.1%
viability, T/C [38]: 80.3%
viability, T/C [39]: 82%
viability, T/C [40]: 94.4%
viability, T/C [41]: 93.2%
viability, T/C [42]: 91.1%

SMILES: C#Cc1c(F)ccc2cc(O)cc(-c3ncc4c(N5CC6CCC(C5)N6)nc(OCC56CCCN5CC(F)C6)nc4c3F)c12 (centres undefined)
viability, T/C (compound 0.0316 µM): 94.5% [middle of 4 runs]
viability, T/C (compound 0.316 µM): 97% [middle of 4 runs]
viability, T/C (compound 3.16 µM): 84.7% [middle of 4 runs]
viability, T/C (compound 10 µM): 86.3% [middle of 4 runs]
IC50 (curve of compound): > 10 µM

Continued, in another order:

IC50 [1]: > 10 µM
IC50 [2]: > 10 µM
IC50 [3]: > 10 µM
IC50 [4]: > 10 µM
IC50 [5]: > 10 µM
IC50 [6]: > 10 µM
SMILES: CC1(C)CCC(CN2CCN(c3ccc(C(=O)NS(=O)(=O)c4ccc(NCC5CCOCC5)c([N+](=O)[O-])c4)c(Oc4cnc5[nH]ccc5c4)c3)CC2)=C(c2ccc(Cl)cc2)C1 + CC(Nc1ccc2c(c1)OCCn1cc(N3C(=O)OCC3C(F)F)nc1-2)C(N)=O
viability, T/C [7]: 88.5%
viability, T/C [8]: 86.8%
viability, T/C [9]: 104%
viability, T/C [10]: 96.9%
viability, T/C [11]: 89.1%
viability, T/C [12]: 77.4%
viability, T/C [13]: 93.3%
viability, T/C [14]: 81.3%
viability, T/C [15]: 123%
viability, T/C [16]: 93.7%
viability, T/C [17]: 75.5%
viability, T/C [18]: 69%
viability, T/C [19]: 81.4%
viability, T/C [20]: 90.5%
viability, T/C [21]: 99.9%
viability, T/C [22]: 72.7%
viability, T/C [23]: 74.5%
viability, T/C [24]: 79.1%
viability, T/C [25]: 72.7%
viability, T/C [26]: 66.9%
viability, T/C [27]: 79.1%
viability, T/C [28]: 66.9%
viability, T/C [29]: 81.1%
viability, T/C [30]: 56.6%
viability, T/C [31]: 79.6%
viability, T/C [32]: 74.2%
viability, T/C [33]: 94.9%
viability, T/C [34]: 77.4%
viability, T/C [35]: 79.1%
viability, T/C [36]: 63%
viability, T/C [37]: 87.1%
viability, T/C [38]: 93.3%
viability, T/C [39]: 79.3%
viability, T/C [40]: 86%
viability, T/C [41]: 94.4%
viability, T/C [42]: 77.8%

IC50 (compound alone, run of 06/13/2023): > 10 µM
SMILES: CC(Nc1ncnc2nc[nH]c12)c1cc2cccc(Cl)c2c(=O)n1-c1ccccc1 (centres undefined)
viability, T/C (compound 0.316 µM): 91.6% [middle of 8 runs]
viability, T/C (compound 1 µM): 91.4% [middle of 8 runs]

IC50 [3]: 3.55 µM
IC50 [4]: 4.27 µM
IC50 [5]: 3.13 µM
IC50 [6]: 3.73 µM
IC50 (curve of first compound, second compound 3.16 µM): 2.99 µM
IC50 (curve of first compound, second compound 10 µM): 2.97 µM
SMILES: CC1(C)CCC(Nc2ncc(C(F)(F)F)c(-c3c[nH]c4c(P(C)(C)=O)c(C#N)ccc34)n2)CN1 (centres undefined) + CC(Nc1ncnc2nc[nH]c12)c1cc2cccc(Cl)c2c(=O)n1-c1ccccc1
viability, T/C [19]: 81.1%
viability, T/C [20]: 93.2%
viability, T/C [21]: 102%
viability, T/C [22]: 108%
viability, T/C [23]: 54.9%
viability, T/C [24]: 6.48%
viability, T/C [25]: 94.1%
viability, T/C [26]: 92.3%
viability, T/C [27]: 96.3%
viability, T/C [28]: 104%
viability, T/C [29]: 65.7%
viability, T/C [30]: 6.11%
viability, T/C [31]: 91%
viability, T/C [32]: 76.4%
viability, T/C [33]: 90.8%
viability, T/C [34]: 108%
viability, T/C [35]: 49.7%
viability, T/C [36]: 5.05%
viability, T/C [37]: 108%
viability, T/C [38]: 94.1%
viability, T/C [39]: 100%
viability, T/C [40]: 98.7%
viability, T/C [41]: 57.6%
viability, T/C [42]: 4.82%
viability, T/C (second compound 3.16 µM, first compound 0.0316 µM): 91.2%
viability, T/C (second compound 3.16 µM, first compound 0.1 µM): 94.7%
viability, T/C (second compound 3.16 µM, first compound 0.316 µM): 100%
viability, T/C (second compound 3.16 µM, first compound 1 µM): 93.3%
viability, T/C (second compound 3.16 µM, first compound 3.16 µM): 47.8%
viability, T/C (second compound 3.16 µM, first compound 10 µM): 4.88%
viability, T/C (second compound 10 µM, first compound 0.0316 µM): 100%
viability, T/C (second compound 10 µM, first compound 0.1 µM): 84.4%
viability, T/C (second compound 10 µM, first compound 0.316 µM): 92.3%
viability, T/C (second compound 10 µM, first compound 1 µM): 81.3%
viability, T/C (second compound 10 µM, first compound 3.16 µM): 48.1%
viability, T/C (second compound 10 µM, first compound 10 µM): 3.89%
